# Test results: patent publication US9718828B2 (MERCK SHARP & DOHME CORP., priority 2011, dated 2017)
# Structures can show the parent of a compound that is named as a salt. Where two headings read alike, the source gives them in different places.
# Molecular target: Btk enzyme (His-Btk) (Homo sapiens (Human), UniProt Q06187)
# Assay: Btk enzyme activity, IMAP fluorescence polarization assay (Assay Method A)
# [1] = read-out: EC50 Btk activity values - Assay Method A, IMAP-FP, 60 min pre-incubation, 5 μM ATP, class 100-1000 is given as ≧100 nM-<1 μM
# Chain of Btk enzyme (His-Btk) (Q06187 whole entry): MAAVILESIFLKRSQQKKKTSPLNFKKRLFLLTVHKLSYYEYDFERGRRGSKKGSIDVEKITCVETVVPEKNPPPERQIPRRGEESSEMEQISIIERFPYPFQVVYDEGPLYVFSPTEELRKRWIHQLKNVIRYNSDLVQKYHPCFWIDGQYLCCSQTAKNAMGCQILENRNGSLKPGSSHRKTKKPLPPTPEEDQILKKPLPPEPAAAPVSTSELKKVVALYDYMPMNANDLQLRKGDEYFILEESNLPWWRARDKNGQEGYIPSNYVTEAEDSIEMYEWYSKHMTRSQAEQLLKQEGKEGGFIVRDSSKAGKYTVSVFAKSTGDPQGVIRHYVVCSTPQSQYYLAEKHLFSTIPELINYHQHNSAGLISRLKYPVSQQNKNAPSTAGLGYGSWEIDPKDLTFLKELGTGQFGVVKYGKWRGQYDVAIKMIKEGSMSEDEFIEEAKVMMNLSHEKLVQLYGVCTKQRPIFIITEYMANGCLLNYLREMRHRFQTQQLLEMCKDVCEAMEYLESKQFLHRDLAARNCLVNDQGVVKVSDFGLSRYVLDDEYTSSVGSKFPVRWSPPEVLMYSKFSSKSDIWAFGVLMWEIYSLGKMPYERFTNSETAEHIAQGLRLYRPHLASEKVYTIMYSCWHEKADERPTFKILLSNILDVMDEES
EC50 [1] [nM],EC50 [nM],Structure (SMILES)
< 10,–,"COCCC(=O)N[C@H]1CCC[C@@H](c2nc(-c3ccc(C(=O)Nc4cc(C(F)(F)F)ccn4)cc3)c3c(N)nccn23)C1 (relative stereo) [Example 158, 4-(8-amino-3-((cis)-3-(3-methoxypropanamido)cyclohexyl)imidazo [1,5-a]pyrazin-1-yl)-N-(4-(trifluoromethyl)pyridin-2-yl)benzamide]"
–,< 10,"CCC(=O)N1CCC[C@@H](c2nc(-c3ccc(C(=O)Nc4nc5c(s4)CC(C)CC5)cc3)c3c(N)nccn23)C1 (stereo in doubt) [Example 65, (R)-4-(8-amino-3-(1-propionylpiperidin-3-yl)imidazo[1,5-a]pyrazin-1-yl)-N-(6-methyl-4,5,6,7-tetrahydrobenzo[d]thiazol-2-yl)benzamide]"
–,10 to 100,"COCC1(C(=O)N2CCC[C@@H](n3nc(-c4ccc(C(=O)Nc5cc(C(F)(F)F)ccn5)cc4)c4c(N)ncnc43)C2)CCC1 [Example 272, (R)-4-(4-amino-1-(1-(1-(methoxymethyl)cyclobutanecarbonyl)piperidin-3-yl)-1H-pyrazolo[3,4-d]pyrimidin-3-yl)-N-(4-(trifluoromethyl)pyridin-2-yl)benzamide]"
–,100 to 1000,"CC(C)C(=O)N1CCC2(CC1)CC2c1nc(-c2ccc(C(=O)Nc3ccccn3)cc2)c2c(N)nccn12 (centres unmarked) [Example 150, 4-(8-amino-3-(6-isobutyryl-6-azaspiro[2.5]octan-1-yl)imidazo[1,5-a]pyrazin-1-yl)-N-(pyridin-2-yl) benzamidee]"
< 10,–,"CCNC(=O)N[C@@H]1CCCN(c2nc(-c3ccc(C(=O)Nc4cc(C(F)(F)F)ccn4)cc3)c3c(N)nccn23)C1 [Example 221, (R)-4-(8-amino-3-(3-(3-ethylureido)piperidin-1-yl)imidazo[1,5-a]pyrazin-1-yl)-N-(4-(trifluoromethyl)pyridin-2-yl)benzamide]"
–,10 to 100,"COCCC(=O)N1CCC[C@@H](c2nc(-c3ccc(C(=O)Nc4ccccn4)cc3C)c3c(N)nccn23)C1 [Example 285, 4-(8-amino-3-((R)-1-(3-methoxypropanoyl)piperidin-3-yl)imidazo[1,5-a]pyrazin-1-yl)-3-methyl-N-(pyridin-2-yl)benzamide, TFA salt]"
< 10,–,"CSCCC(=O)N1C[C@H](c2nc(-c3ccc(C(=O)Nc4cc(C5CC5)ccn4)cc3)c3c(N)nccn23)CC[C@@H]1C (relative stereo) [Example 198, 4-(8-amino-3-((cis)-6-methyl-1-(3-(methylthio)propanoyl)-piperidin-3-yl)imidazo[1,5-a]pyrazin-1-yl)-N-(4-cyclopropylpyridin-2-yl)benzamide, TFA salt]"
< 10,–,"CC(C)C(=O)N1C[C@H](c2nc(-c3ccc(C(=O)Nc4ccccn4)cc3)c3c(N)nccn23)CC[C@@H]1C (relative stereo) [Example 205, 4-(8-amino-3-((cis)-1-isobutyryl-6-methylpiperidin-3-yl)imidazo[1,5-a]pyrazin-1-yl)-N-(pyridin-2-yl)benzamide, TFA salt]"
–,100 to 1000,"COCCC(=O)N1CCC[C@@H](c2nc(-c3ccc(C(=O)Nc4ccccn4)cn3)c3c(N)nccn23)C1 [Example 288, (R)-6-(8-amino-3-(1-(3-methoxypropanoyl)piperidin-3-yl)imidazo[1,5-a]pyrazin-1-yl)-N-(pyridin-2-yl) nicotinamide]"
–,100 to 1000,"CN(C)CCCC(=O)N1CC[C@@H](c2nc(-c3ccc(C(=O)Nc4ccccn4)cc3)c3c(N)nccn23)C1 [Example 124, (R)-4-(8-amino-3-(1-(4-(dimethylamino)butanoyl)pyrrolidin-3-yl)imidazo[1,5-a]pyrazin-1-yl)-N-(pyridin-2-yl)benzamide]"
–,100 to 1000,Cc1cc(C(=O)Nc2ccccn2)ccc1-c1nc([C@H]2CC[C@H](O)CC2)n2ccnc(N)c12 [Example 16]
< 10,–,"CCOC(=O)N1CCC[C@@H](n2nc(-c3ccc(C(=O)Nc4cc(C(F)(F)F)ccn4)cc3)c3c(N)ncnc32)C1 [Example 273, (R)-ethyl 3-(4-amino-3-(4-(4-(trifluoromethyl)pyridin-2-ylcarbamoyl)phenyl)-1H-pyrazolo[3,4-d]pyrimidin-1-yl)piperidine-1-carboxylate]"
< 10,–,"CCNC(=O)N1CCC[C@@H](c2nc(-c3ccc(C(=O)Nc4cc(C#N)ccn4)cc3)c3c(N)nccn23)C1 [Example 101, (R)-3-(8-amino-1-(4-(4-cyanopyridin-2-ylcarbamoyl)phenyl)imidazo [1,5-a]pyrazin-3-yl)-N-ethylpiperidine-1-carboxamide]"
< 10,–,"Nc1ncnn2c([C@@H]3CCCN(C(=O)C4CC(F)(F)C4)C3)nc(-c3ccc(C(=O)Nc4cc(C(F)(F)F)ccn4)cc3)c12 [Example 260, (R)-4-(4-amino-7-(1-(3,3-difluorocyclobutanecarbonyl)piperidin-3-yl)imidazo[1,5-f][1,2,4]triazin-5-yl)-N-(4-(trifluoromethyl)pyridin-2-yl)benzamide]"
–,10 to 100,"Nc1nccn2c(N3CCCC(C(=O)N4CCOCC4)C3)nc(-c3ccc(C(=O)Nc4ccccn4)cc3)c12 (centres unmarked) [Example 229, 4-(8-amino-3-(3-(morpholine-4-carbonyl)piperidin-1-yl)imidazo[1,5-a]pyrazin-1-yl)-N-(pyridin-2-yl)benzamide, TFA salt]"
< 10,–,"CCOCCC(=O)N1C[C@H](c2nc(-c3ccc(C(=O)Nc4ccccn4)cc3)c3c(N)nccn23)CC[C@@H]1C (relative stereo) [Example 206, 4-(8-amino-3-((cis)-1-(3-ethoxypropanoyl)-6-methylpiperidin-3-yl)imidazo[1,5-a]pyrazin-1-yl)-N-(pyridin-2-yl)benzamide, TFA salt]"
–,< 10,"COCCOCCOCCOCCOCCOCCOCCOCCC(=O)N1CCC[C@@H](c2nc(-c3ccc(C(=O)Nc4cc(C(F)(F)F)ccn4)cc3)c3c(N)nccn23)C1 [Example 80, (R)-4-(3-(1-2,5,8,11,14,17,20,23-octaoxahexacosanepiperidin-3-yl)-8-aminoimidazo[1,5-a]pyrazin-1-yl)-N-(4-(trifluoromethyl)pyridin-2-yl)benzamide]"
< 10,–,"CC1(C(=O)N2CCC[C@@H](n3nc(-c4ccc(C(=O)Nc5cc(C(F)(F)F)ccn5)cc4)c4c(N)ncnc43)C2)COC1 [Example 267, (R)-4-(4-amino-1-(1-(3-methyloxetane-3-carbonyl)piperidin-3-yl)-1H-pyrazolo[3,4-d]pyrimidin-3-yl)-N-(4-(trifluoromethyl)pyridin-2-yl)benzamide]"
< 10,–,"C[C@H]1CC[C@@H](c2nc(-c3ccc(C(=O)Nc4cc(C(F)(F)F)ccn4)cc3)c3c(N)nccn23)CN1C(=O)C1CCCO1 (relative stereo) [Example 194, 4-(8-amino-3-((cis)-6-methyl-1-(tetrahydrofuran-2-carbonyl)piperidin-3-yl)imidazo[1,5-a]pyrazin-1-yl)-N-(4-(trifluoromethyl)pyridin-2-yl)benzamide, TFA salt]"
–,10 to 100,"Nc1nccn2c([C@@H]3CCCN(CCC(F)(F)F)C3)nc(-c3ccc(C(=O)Nc4ccccn4)cc3)c12 [Example 136, (R)-4-(8-amino-3-(1-(3,3,3-trifluoropropyl)piperidin-3-yl)imidazo[1,5-a]pyrazin-1-yl)-N-(pyridin-2-yl)benzamide TFA salt]"
